Active and inactive are the calls of the source. No cut-off for these calls is given here.
Columns and labels:
[1] = Reduction in cMyc expression in human COLO 320HSR cells incubated for 24 hrs by HTRF assay; assay type: functional, cell-based
[2] = Permeability of the compound across artificial membrane by AMP assay; assay type: ADME; details: PAMPA; read-out: permeability
[3] = Clearance in CD1 mouse at 0.49 mg/kg, iv by LC-MS/MS analysis; assay type: ADME, organism-based; details: in vivo
[4] = Half life in CD1 mouse at 0.49 mg/kg, iv by LC-MS/MS analysis; assay type: ADME, organism-based; details: in vivo
[5] = Volume of distribution at steady state in CD1 mouse at 0.49 mg/kg, iv by LC-MS/MS analysis; assay type: ADME, organism-based; details: in vivo, read-out: Vdss
[6] = AUC (0 to inf) in CD1 mouse at 5.1 mg/kg, po by LC-MS/MS analysis; assay type: ADME, organism-based; design: time infinity, dose 5.1 mg/kg, route po; details: in vivo
[7] = Oral bioavailability in CD1 mouse at 5.1 mg/kg by LC-MS/MS analysis; assay type: ADME, organism-based; details: in vivo
[8] = Plasma protein binding in CD1 mouse at 5.1 mg/kg, po by LC-MS/MS analysis; assay type: ADME, organism-based; details: read-out: PPB
[9] = Clearance in Han Wistar rat at 1 mg/kg, iv by LC-MS/MS analysis; assay type: ADME, organism-based; details: in vivo
[10] = Half life in Han Wistar rat at 1 mg/kg, iv by LC-MS/MS analysis; assay type: ADME, organism-based; details: in vivo
[11] = Volume of distribution at steady state in Han Wistar rat at 1 mg/kg, iv by LC-MS/MS analysis; assay type: ADME, organism-based; details: in vivo, read-out: Vdss
[12] = AUC (0 to inf) in Han Wistar rat at 2.1 mg/kg, po by LC-MS/MS analysis; assay type: ADME, organism-based; design: time infinity, dose 2.1 mg/kg, route po; details: in vivo
[13] = Oral bioavailability in Han Wistar rat at 2.1 mg/kg by LC-MS/MS analysis; assay type: ADME, organism-based; details: in vivo
[14] = Plasma protein binding in Han Wistar rat at 2.1 mg/kg, po by LC-MS/MS analysis; assay type: ADME, organism-based; details: read-out: PPB
[15] = test system: DOHH-2; assay: Decrease in c-MYC protein level in human DOHH-2 cells incubated for 6 hrs by Western blot analysis; assay type: functional, cell-based
[16] = test system: Burkitts lymphoma cell; assay: Growth inhibition of MYC-translocated human Burkitts lymphoma cells measured after 6 days by CellTiterGlo-assay; assay type: functional; details: time 6.0 day
[17] = test system: DOHH-2; assay: Reduction in MYC mRNA level in po dosed mouse xenografted with human DOHH-2 cells by qRT-PCR analysis; assay type: functional, organism-based; details: dose 15-100 mg/kg
[18] = test system: DOHH-2; assay: Anticancer activity against human DOHH-2 cells assessed as tumor growth inhibition at 30 mg/kg, po qd measured after 21 days; assay type: functional; details: DOHH-2, 504 h, time 21 day, read-out: TGI
[19] = test system: DOHH-2; assay: Anticancer activity against human DOHH-2 cells assessed as tumor growth inhibition at 45 mg/kg, po qd measured after 21 days; assay type: functional; details: DOHH-2, 504 h, time 21 day, read-out: TGI
[20] = test system: DOHH-2; assay: Anticancer activity against human DOHH-2 cells assessed as tumor growth inhibition at 30 mg/kg, po qd measured after 28 days; assay type: functional; details: DOHH-2, 672 h, time 28 day, read-out: TGI
[21] = test system: DOHH-2; assay: Anticancer activity against human DOHH-2 cells assessed as reduction in MYC mRNA expression in tumor at 30 mg/kg, po qd measured after 28 days by qRT-PCR analysis; assay type: functional, organism-based; details: time 28.0 day
[22] = test system: Mus musculus; assay: Toxicity in mouse assessed as decrease in body weight at 30 mg/kg, po qd measured after 28 days; assay type: organism-based; details: in vivo, 672 h, time 28 day
[23] = Clearance in CD1 mouse at 0.5 mg/kg, iv by LC-MS/MS analysis; assay type: ADME, organism-based; details: in vivo
[24] = Half life in CD1 mouse at 0.5 mg/kg, iv by LC-MS/MS analysis; assay type: ADME, organism-based; details: in vivo
[25] = Volume of distribution at steady state in CD1 mouse at 0.5 mg/kg, iv by LC-MS/MS analysis; assay type: ADME, organism-based; details: in vivo, read-out: Vdss

Q: What does the source list for CCNC(=O)c1cc(OC)c2c(c1)nc(-c1ccc(N3[C@@H](C)CC[C@@H]3C)nc1)n2C[C@@H]1CN(C)CCO1?
A: EC50 [1]: 79.4 nM; Papp [2]: 20.5 ×10⁻⁶ cm/s; clearance [3]: 25 mL/min/kg; half-life [4]: 0.75 h; Vd [5]: 0.73 L/kg; AUC(0-inf) [6]: 1720 ng·h/mL; bioavailability [7]: 35%; fraction unbound [8]: 0.01; clearance [9]: 22 mL/min/kg; half-life [10]: 3.6 h; Vd [11]: 2.6 L/kg; AUC(0-inf) [12]: 669 ng·h/mL; bioavailability [13]: 40%; fraction unbound [14]: 0.09; Activity [15]: Active; growth inhibition (GI) [16]: Active; Activity [17]: Active; inhibition in vivo at 30 mg/kg [18]: 58%; inhibition in vivo at 45 mg/kg [19]: 89%; inhibition in vivo at 30 mg/kg [20]: 82%; Activity [21]: Active; Activity [22]: Non-Toxic; clearance [23]: 26 mL/min/kg; half-life [24]: 1.9 h; Vd [25]: 3.4 L/kg

— ChEMBL document CHEMBL5055661, “Cell-Based Drug Discovery: Identification and Optimization of Small Molecules that Reduce c-MYC Protein Levels in Cells” (J Med Chem, 2021)
